Data reported in patent US20230248745A1, “SILVER ENHANCED CANNABINOID ANTIBIOTICS” (priority 2020, published 2023).
Entries after “also recorded” stand apart in the source; their conditions may differ. Like-named read-outs stand apart in the source and are kept apart here.

Legend:
[1] = system: MRSA (strain USA 300); type: cell-based, Methicillin-resistant Staphylococcus aureus; conditions: for antibiotic effect of combination compared with silver nanoparticles alone: cannabinoid 2% + silver nanoparticles 2% silver w/w to PVA, films or coated catheter sections; for inhibition of bacterial growth (ring): single agent at 2% w/w to PVA, films and coated catheter sections, 24 hours
Description: PVA films were made by solvent casting using 33 μl drops of 2.5% PVA (88% hydrolyzed, 125 KDa molecular weight) mixed with CBC, CBG or CBGA (2% w/w to PVA). […] 3 mm sections of a urethral catheter (BARDEX® BARD®) were cut and coated with the same 33 μl volume of PVA/Silver/cannabinoid used to make films. Films and coated catheter sections were dried overnight in the dark. Five cavities were created in the LB agar plates containing MRSA (strain USA 300) at OD600 of 0.005. PVA films and catheters coated with PVA films were then placed in the cavities and moistened with 20 μL of deionized distilled water. Plates were incubated for 24 hours at 37° C.

[2] = system: MRSA (USA300); experiment: Checkerboard assay, FICI of cannabinoid/silver combinations; type: cell-based, Methicillin-resistant Staphylococcus aureus
Description: (§1) Antibacterial growth was measured using a checkerboard analysis or qualitatively using agar plates with zones of inhibition. Viability was measured by the number of colony forming units (CFU) over time.
(§2) Using checkerboard analysis, the fractional inhibitory concentration index (FICI) was calculated for the 96-well plate test to illustrate synergy.
(§3) MRSA strain, USA300, was cultured in Luria-Bertani (LB) medium and inoculated at 37 C.
(§4) Cannabinoids or silver (expressed as the concentration of silver not the salt) were serially diluted 2-fold across the 96-well plate (Costar, catalog no. 3370) followed by addition of 100 μL of bacterial cultures with an OD600 of 0.0025. […] Wells turbidity were then analyzed using Varioskan™ microplate reader.
(§5) FICI was calculated in a checkerboard assay based on the turbidity of the wells. FIC of each agent was determined as the ratio of the minimal inhibitory concentration MIC of one agent in the presence of the other agent to the MIC of that agent alone. FICI was consequently computed as the sum of each agent's FIC.

[3] = system: E. coli strain K12; experiment: as above; type: cell-based, Escherichia coli; conditions: for FICI Silver Nanoparticles: Silver Nanoparticles in combination with the cannabinoid; for FICI Silver Sulfate: Silver Sulfate in combination with the cannabinoid
Description: as §1, §2
(§6) Escherichia coli (E. coli), strain K12, was cultured in Luria-Bertani (LB) medium and inoculated at 37 C.
as §4, §5

[4] = system: MRSA (strain USA300); experiment: Kill-curve test (CFU over time); type: cell-based, Methicillin-resistant Staphylococcus aureus; conditions: for combined inhibitory effects compared to ½×MIC combinations: cannabinoid ¼×MIC + AgNPs
Description: as §1, §3
(§7) For each test tube, 1 mL of culture at OD600 of 0.005 was added to 1 mL of LB medium containing antibiotics to reach target sub-MIC concentrations of each compound. Samples of 100 μL was extracted from each tube at the determined time stamps followed by 10-fold serial dilutions. 10 μL of each dilution was then added on the LB agar plates that were subsequently incubated for 24 hours. Colonies were inspected and results quantified as log CFU/mL.

[5] = system: E. coli (strain K12); experiment: Kill-curve test (CFU over time); type: cell-based, Escherichia coli; conditions: for growth inhibition: 1.25 mg/L and 0.625 mg/L (lower concentrations)
Description: as §1, §6, §7

[6] = system: MRSA (strain USA300); experiment: microbe, parasite or virus in culture; type: cell-based, Methicillin-resistant Staphylococcus aureus; conditions: Staphylococcus aureus; agent alone; silver expressed as silver; read-out: MIC
Excerpt: In therapeutic applications, synergy between active ingredients occurs when an observed combined therapeutic effect is greater than the sum of therapeutic effects of individual active ingredients, or a new therapeutic effect is produced that the active ingredients could not produce alone. […] In this context, the enhancement of therapeutic effect may take the form of increased efficacy or potency and/or decreased adverse effects. The synergistic effect may be mediated in whole or in part by the pharmacokinetics and/or pharmacodynamics of the active ingredients in a subject, so that the amount and proportion of the ingredients in the formulation may be synergistic in vivo. This in vivo synergy may be effected with a formulation that includes the active ingredients in amounts and proportions that are also synergistic in in vitro assays of efficacy. As used herein, the term “synergistically effective amounts” accordingly refers to amounts that are synergistic in vivo and/or in vitro. A numeric quantification of synergy is often expressed as a fractional inhibitory concentration index (FICI), which represents the sum of the fractional inhibitory concentrations (FICs) of each drug tested, where the FIC is determined for each drug by dividing the minimum inhibitory concentration (MIC, the lowest concentration of the drug which prevents visible growth of the bacterium in a standard in vitro assay—standard colorometric assay based on resazurin) of each drug when used in combination by the MIC of each drug when used alone. In very general terms, a FICI lower or higher than 1 indicates positively correlated activity (at least additive or potentiation) or an absence of positive interactions, respectively. […] (as described and used by Joung D K et al. and Rakoliya K et al.)
as §4

[7] = system: E. coli (strain K12); conditions: agent alone
Excerpt: In therapeutic applications, synergy between active ingredients occurs when an observed combined therapeutic effect is greater than the sum of therapeutic effects of individual active ingredients, or a new therapeutic effect is produced that the active ingredients could not produce alone. […] In this context, the enhancement of therapeutic effect may take the form of increased efficacy or potency and/or decreased adverse effects. The synergistic effect may be mediated in whole or in part by the pharmacokinetics and/or pharmacodynamics of the active ingredients in a subject, so that the amount and proportion of the ingredients in the formulation may be synergistic in vivo. This in vivo synergy may be effected with a formulation that includes the active ingredients in amounts and proportions that are also synergistic in in vitro assays of efficacy. […] A numeric quantification of synergy is often expressed as a fractional inhibitory concentration index (FICI), which represents the sum of the fractional inhibitory concentrations (FICs) of each drug tested, where the FIC is determined for each drug by dividing the minimum inhibitory concentration (MIC, the lowest concentration of the drug which prevents visible growth of the bacterium in a standard in vitro assay—standard colorometric assay based on resazurin) of each drug when used in combination by the MIC of each drug when used alone. […]

[8] = system: MRSA; experiment: Agar plate test of CBGA with silver nanoparticles; type: cell-based, Methicillin-resistant Staphylococcus aureus
Description: Four LB agar plates were prepared with MRSA culture at OD600 of 0.005. (FIG. 4) Each plate contained different concentrations of CBGA (no CBGA, ½ MIC, ¼ MIC, and ⅛ MIC). All plates were then divided into quadrants, each of which received 8 μL of AgNP at different concentrations from 20 mg/L serially diluted by 2-fold down to 2.5 mg/L in 0.2 mM sodium citrate.

[9] = Silver Nanoparticles in combination with the cannabinoid
[10] = Silver Nitrate in combination with the cannabinoid
[11] = cannabinoid with silver nanoparticles
[12] = cannabinoid with silver nitrate
[13] = cannabinoid with silver sulfate
[14] = cannabinoid ½×MIC + AgNP 1/160×MIC (0.25 mg/L)
[15] = cannabinoid ½×MIC + AgNP ⅛×MIC (5 mg/L)
[16] = cannabinoid ½×MIC + silver nitrate 1 mg/L
[17] = cannabinoid ½×MIC + silver nitrate 5 and 8 mg/L
[18] = 8 mg/L cannabinoid + 2.5, 1.25 and 0.625 mg/L AgSO4 (each)

Structure (SMILES) | antibiotic effect of combination compared with silver nanoparticles alone [1] | inhibition of bacterial growth (ring) [1] | FICI [2, 9] | FICI [2, 10] | interaction (interpretation of FICI) [2, 11] | interaction (interpretation of FICI) [2, 12] | FICI Silver Nanoparticles [3] | FICI Silver Sulfate [3] | interaction (interpretation of FICI) [3, 11] | interaction (interpretation of FICI) [3, 13] | kill-curve effect (CFU) [4] | time for which bactericidal effect persisted [4] | MRSA growth by 24 hours ([4]; cannabinoid alone at ½×MIC) | combined inhibitory effects compared to ½×MIC combinations [4] | kill-curve effect (CFU) [4, 14] | kill-curve effect (CFU) [4, 15] | time through which bactericidal effect persisted [4, 15] | MIC [6] | other results
CCCCCc1cc(O)c2c(c1)OC(C)(CCC=C(C)C)C=C2 (stereo not shown) [CBC, cannabichromene] | increased antibiotic effect | some level of inhibition | 0.141 | 0.375 | synergistic | strongly synergistic | 0.73 | 0.63 | potentiation | potentiation | nearly identical full bactericidal effect | 24 h | full bacterial growth had occurred; also recorded: returned to levels approximating that of 0×MIC treatment | weaker and less durable | strong bactericidal effect | full bactericidal effect | 24 h | 8 µg/mL | time of onset of bactericidal effect [4]: ≤ 2 h; duration of bacterial growth inhibition ([4]; cannabinoid alone at ½×MIC): 6 h; duration of strong inhibition ([4]; cannabinoid ¼×MIC + silver nitrate 1 mg/L): 6 h; kill-curve effect (CFU) ([4]; cannabinoid ¼×MIC + silver nitrate 5 and 8 mg/L): Almost identical results; time of onset of bactericidal effect [4, 15]: 2 h; effect at 24 hours [4, 16]: strong inhibition of bacterial growth; kill-curve effect (CFU) [4, 16]: complete bactericidal effect; time for which bactericidal effect remained [4, 16]: 6 h; time of onset of bactericidal effect [4, 16]: 2 h; kill-curve effect (CFU) [4, 17]: fully bactericidal; time of onset of bactericidal effect [4, 17]: 2 h; time through which bactericidal effect remained [4, 17]: 24 h; time through which bacterial growth was inhibited [5]: 24 h; time through which the effect persisted [5]: 24 h; time to the reduction in E. coli CFU [5]: ≤ 6 h; time through which E. coli growth was inhibited [5, 18]: 24 h; time to the reduction in E. coli CFU [5, 18]: ≤ 4 h; inhibitory effect on E. coli growth over 24 hours ([5]; cannabinoid alone, 8 mg/L): failed to achieve any inhibitory effect; inhibition of E. coli growth over 24 hours ([5]; cannabinoid alone, 16 mg/L): failed to achieve any inhibition; inhibition of E. coli growth (summary) ([5]; cannabinoid alone, concentrations up to 16 mg/L): fail to achieve any detectable inhibition
O=S(=O)([O-])[O-].[Ag+].[Ag+] [silver sulfate] | – | – | – | – | – | – | – | – | – | – | – | – | – | – | – | – | – | – | MIC [7]: 2.5 µg/mL; growth inhibition ([5]; AgSO4 alone): very little inhibitory effects; growth inhibition ([5]; AgSO4 alone, listed as AgSO4): some initial growth inhibition; bactericidal effects (net reduction in bacterial CFU) ([5]; AgSO4 alone, 2.5 mg/L): no bactericidal effects; period of inhibition of E. coli growth ([5]; AgSO4 alone, 2.5 mg/L): 6 h; total increase in bacterial CFU at 24 hours ([5]; AgSO4 alone, 2.5 mg/L): approximately 1 log; inhibitory effect on E. coli growth (summary) ([5]; silver sulfate alone at 2.5 mg/L): weak inhibitory effect
CCCCCc1cc(O)c(C/C=C(\C)CCC=C(C)C)c(O)c1C(=O)O [CBGA, cannabigerolic acid] | increased antibiotic effect | some level of inhibition | 0.375 | 0.53 | synergistic | partial synergy | 0.73 | 0.75 | potentiation | potentiation | nearly identical full bactericidal effect | 24 h | returned to levels approximating that of 0×MIC treatment | weaker and less durable | strong bactericidal effect | full bactericidal effect | 24 h | 4 µg/mL | antibiotic effect of combination compared with silver nitrate alone ([1]; cannabinoid 2% + silver nitrate 2% silver w/w to PVA): increased antibiotic effect; inhibition of MRSA growth ([8]; CBGA at ½ MIC in the agar): strong inhibition of MRSA growth in all wells; antibiotic effect ([8]; CBGA at ½ MIC in the agar + 20 mg/L silver nanoparticles): strongest antibiotic effect; inhibition of bacterial growth (darkening in the photo) ([8]; CBGA at ⅛ MIC or ¼ MIC in agar + AgNP 2.5-20 mg/L): concentration dependent darkening
